According to patent US9603804B2, “Solid pharmaceutical composition” (KYORIN PHARMACEUTICAL CO., LTD., priority 2013, dated 2017):

What was measured:
[1] = pH measurement of acidic/basic substances (2.5% liquid, pH meter); format: physicochemical; conditions: 50 mg substance dissolved or suspended in 1,950 μL of water (concentration: 2.5%)
[2] = Solubility in water at 20° C. of acidic substances; format: physicochemical; conditions: MW={C/(100+C)}×100, C = mass (g) of solute dissolved in 100 g of water
Description: The “solubility in water” herein is a value obtained by calculation using the following equation (A) on the basis of the mass (g) of a solute that is dissolved in 100 g of water. MW={C/(100+C)}×100 (A) In the equation (A), MW represents the solubility (%) in water and C represents the mass (g) of a solute that is dissolved in 100 g of water.

| SMILES | pH [1] | SOLUBILITY IN WATER (20° C.) [2] [%] |
| --- | --- | --- |
| O=C(O)/C=C/C(=O)O [FUMARIC ACID, fumaric acid] | 2.2 | 0.63 |
| N[C@@H](CC(=O)O)C(=O)O [L-ASPARTIC ACID, L-aspartic acid] | 2.8 |  |
| O=C(O)CC(O)(CC(=O)O)C(=O)O [ANHYDROUS CITRIC ACID, citric acid anhydride] | 2.1 |  |
| O=C(O)C(O)C(O)C(=O)O [L-(+)TARTARIC ACID, L-(+)tartaric acid] | 1.9 |  |
| O=C(O)CC(O)C(=O)O (racemic) [DL-MALIC ACID, DL-malic acid] | 2.1 | 36.0 |
| O=C([O-])CC(O)(CC(=O)[O-])C(=O)O.[Na+].[Na+] [DIBASIC SODIUM CITRATE, dibasic sodium citrate] | 5.1 |  |

Further lines, results first:

| pH [1] | SOLUBILITY IN WATER (20° C.) [2] [%] | SMILES |
| --- | --- | --- |
| 3.7 |  | O=C([O-])CC(O)(CC(=O)O)C(=O)O.[Na+] [MONOBASIC SODIUM CITRATE, monobasic sodium citrate] |
| 8.2 |  | O=C([O-])CC(O)(CC(=O)[O-])C(=O)[O-].[Na+].[Na+].[Na+] [SODIUM CITRATE, sodium citrate] |
| 3.0 |  | N[C@@H](CCC(=O)O)C(=O)O [L-GLUTAMIC ACID, L-glutamic acid] |
| 1.5 |  | Cl.N[C@@H](CCC(=O)O)C(=O)O [L-GLUTAMIC ACID HYDROCHLORIDE, L-glutamic acid hydrochloride] |
